Read-outs that look alike come from different tables or passages of the source.
Assays:
[1] = target: wild-type Drosophila melanogaster EcR (DmEcR; GAL4-EcR DEF with VP16-RXR-USP chimera) (Drosophila melanogaster, UniProt P34021); test: Two-hybrid gene switch assay, luciferase reporter, wild-type DmEcR, mouse NIH3T3 cells; format: cell-based; conditions: EC50, FIG. 14A/14B, GAL4-EcR(DEF) with VP16-RXR-USP chimera
[2] = target: T1, BaEcR (GAL4-EcR DEF with VP16-RXR-USP chimera) (Bemisia tabaci, UniProt A0A6M3RDR8); test: Two-hybrid gene switch assay, luciferase reporter, BaEcR, mouse NIH3T3 cells; conditions: EC50, FIG. 14A/14B, GAL4-EcR(DEF) with VP16-RXR-USP chimera
T1 sequence (A0A6M3RDR8 115-530): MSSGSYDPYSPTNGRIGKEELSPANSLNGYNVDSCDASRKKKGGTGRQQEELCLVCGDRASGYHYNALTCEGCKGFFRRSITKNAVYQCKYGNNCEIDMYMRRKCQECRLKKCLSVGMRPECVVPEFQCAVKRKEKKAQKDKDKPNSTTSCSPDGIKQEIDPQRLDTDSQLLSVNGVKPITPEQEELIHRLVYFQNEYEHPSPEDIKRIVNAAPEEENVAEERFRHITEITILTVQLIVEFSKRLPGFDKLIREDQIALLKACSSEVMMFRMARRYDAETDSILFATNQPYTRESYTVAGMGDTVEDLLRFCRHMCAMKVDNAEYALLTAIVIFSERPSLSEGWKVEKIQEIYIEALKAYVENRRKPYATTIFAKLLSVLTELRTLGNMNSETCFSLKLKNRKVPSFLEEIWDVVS
T1 sequence (P28702 1-533 partner): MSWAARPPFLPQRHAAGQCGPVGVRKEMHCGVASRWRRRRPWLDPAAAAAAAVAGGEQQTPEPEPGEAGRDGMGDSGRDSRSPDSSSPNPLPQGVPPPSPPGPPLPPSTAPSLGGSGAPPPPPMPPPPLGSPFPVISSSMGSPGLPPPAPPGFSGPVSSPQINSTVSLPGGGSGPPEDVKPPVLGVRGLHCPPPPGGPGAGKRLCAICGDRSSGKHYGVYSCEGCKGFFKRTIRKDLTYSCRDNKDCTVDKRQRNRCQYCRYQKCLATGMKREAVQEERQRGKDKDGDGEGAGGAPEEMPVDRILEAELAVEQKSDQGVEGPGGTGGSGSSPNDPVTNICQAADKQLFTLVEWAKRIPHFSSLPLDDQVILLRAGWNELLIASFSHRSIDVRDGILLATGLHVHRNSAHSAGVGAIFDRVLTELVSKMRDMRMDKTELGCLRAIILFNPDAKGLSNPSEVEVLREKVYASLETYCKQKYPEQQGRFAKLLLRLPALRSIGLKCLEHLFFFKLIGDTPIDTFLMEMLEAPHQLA

[3] = target: wild-type Aedes aegypti EcR (AaEcR; GAL4-EcR DEF with VP16-RXR-USP chimera) (Aedes aegypti, UniProt P49880); test: Two-hybrid gene switch assay, luciferase reporter, wild-type AaEcR, mouse NIH3T3 cells; format: cell-based; conditions: GAL4-EcR(DEF) with VP16-RXR-USP chimera
wild-type Aedes aegypti EcR (AaEcR; GAL4-EcR DEF with VP16-RXR-USP chimera), sequence (P49880 with tags, fused parts or gaps limits assumed, change not shown): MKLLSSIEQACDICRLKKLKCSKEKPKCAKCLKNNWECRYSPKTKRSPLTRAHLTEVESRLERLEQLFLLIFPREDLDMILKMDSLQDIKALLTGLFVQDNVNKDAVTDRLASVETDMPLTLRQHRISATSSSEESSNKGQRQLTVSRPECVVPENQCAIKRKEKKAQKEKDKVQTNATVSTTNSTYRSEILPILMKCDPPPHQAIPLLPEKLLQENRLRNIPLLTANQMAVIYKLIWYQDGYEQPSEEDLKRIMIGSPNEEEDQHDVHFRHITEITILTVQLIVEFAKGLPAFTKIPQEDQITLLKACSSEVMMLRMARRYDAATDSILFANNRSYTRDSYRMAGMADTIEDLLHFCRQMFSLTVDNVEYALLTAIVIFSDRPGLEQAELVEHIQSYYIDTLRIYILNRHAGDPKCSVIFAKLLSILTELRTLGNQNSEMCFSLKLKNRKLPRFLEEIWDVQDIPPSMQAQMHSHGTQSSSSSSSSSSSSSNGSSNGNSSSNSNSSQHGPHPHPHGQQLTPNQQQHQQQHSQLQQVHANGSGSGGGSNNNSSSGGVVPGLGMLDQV

[4] = target: T2, AmaEcR (GAL4-EcR DEF with VP16-RXR-USP chimera) (Amblyomma americanum, UniProt O44338); test: Two-hybrid gene switch assay, luciferase reporter, AmaEcR, mouse NIH3T3 cells; conditions: EC50, FIG. 14A/14B, GAL4-EcR(DEF) with VP16-RXR-USP chimera
T2 sequence (O44338 255-570): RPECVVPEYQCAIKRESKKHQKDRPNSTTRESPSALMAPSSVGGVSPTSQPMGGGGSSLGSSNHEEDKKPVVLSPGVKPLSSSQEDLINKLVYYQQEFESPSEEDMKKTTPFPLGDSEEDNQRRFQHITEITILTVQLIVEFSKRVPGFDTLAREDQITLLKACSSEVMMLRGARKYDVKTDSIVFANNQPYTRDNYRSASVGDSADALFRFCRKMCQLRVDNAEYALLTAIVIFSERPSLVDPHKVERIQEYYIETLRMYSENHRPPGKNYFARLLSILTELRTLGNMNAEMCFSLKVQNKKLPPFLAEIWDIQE
T2 sequence (P28702 1-533 partner): T1 sequence (P28702 1-533 partner)

[5] = target: T3, wild-type CfEcR (GAL4-CfEcR-DEF with VP16-RXR-USP chimera) (Choristoneura fumiferana, UniProt O77255); test: Two-hybrid gene switch assay, luciferase reporter, wild-type CfEcR, mouse NIH3T3 cells
T3 sequence (O77255 219-541): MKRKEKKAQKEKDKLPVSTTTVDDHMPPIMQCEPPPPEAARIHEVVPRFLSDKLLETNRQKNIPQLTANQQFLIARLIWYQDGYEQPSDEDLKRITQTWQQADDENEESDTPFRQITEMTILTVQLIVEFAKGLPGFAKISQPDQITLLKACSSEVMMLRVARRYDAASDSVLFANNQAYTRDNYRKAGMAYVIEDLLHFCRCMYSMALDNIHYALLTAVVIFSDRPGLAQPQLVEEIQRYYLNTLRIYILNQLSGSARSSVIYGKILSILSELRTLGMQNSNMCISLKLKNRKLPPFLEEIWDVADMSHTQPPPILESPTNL
T3 sequence (P28702 1-533 partner): T1 sequence (P28702 1-533 partner)

[6] = target: T4, TmEcR (GAL4-EcR DEF with VP16-RXR partner) (Tenebrio molitor, UniProt O02035); test: Two-hybrid gene switch assay, luciferase reporter, TmEcR, mouse NIH3T3 cells; conditions: EC50, FIG. 14A/14B, GAL4-EcR(DEF)
T4 sequence (O02035 194-491): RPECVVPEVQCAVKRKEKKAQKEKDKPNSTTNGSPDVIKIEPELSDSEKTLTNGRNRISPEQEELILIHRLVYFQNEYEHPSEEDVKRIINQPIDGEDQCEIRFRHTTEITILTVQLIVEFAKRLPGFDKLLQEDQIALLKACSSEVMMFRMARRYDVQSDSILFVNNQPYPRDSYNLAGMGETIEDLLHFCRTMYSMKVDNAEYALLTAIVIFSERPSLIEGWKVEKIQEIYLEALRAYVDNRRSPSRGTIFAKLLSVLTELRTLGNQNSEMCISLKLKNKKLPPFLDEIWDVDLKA
T4 sequence (P28704 1-520 partner): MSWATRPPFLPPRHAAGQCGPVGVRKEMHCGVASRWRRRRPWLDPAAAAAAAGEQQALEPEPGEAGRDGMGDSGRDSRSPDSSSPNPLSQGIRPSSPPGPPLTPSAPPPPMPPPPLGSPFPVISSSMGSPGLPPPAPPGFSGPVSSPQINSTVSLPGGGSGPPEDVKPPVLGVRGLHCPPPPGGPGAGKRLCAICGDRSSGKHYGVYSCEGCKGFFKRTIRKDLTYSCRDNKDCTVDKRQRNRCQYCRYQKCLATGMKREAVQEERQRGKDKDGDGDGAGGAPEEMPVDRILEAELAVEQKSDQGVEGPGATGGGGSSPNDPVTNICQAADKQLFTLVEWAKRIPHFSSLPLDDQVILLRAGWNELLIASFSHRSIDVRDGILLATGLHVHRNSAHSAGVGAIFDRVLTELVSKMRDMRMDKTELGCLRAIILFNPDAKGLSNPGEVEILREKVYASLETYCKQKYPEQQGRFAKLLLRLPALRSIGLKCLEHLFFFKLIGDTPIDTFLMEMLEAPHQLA

wild-type Drosophila melanogaster EcR (DmEcR; GAL4-EcR DEF with VP16-RXR-USP chimera), sequence (P34021 with tags, fused parts or gaps limits assumed): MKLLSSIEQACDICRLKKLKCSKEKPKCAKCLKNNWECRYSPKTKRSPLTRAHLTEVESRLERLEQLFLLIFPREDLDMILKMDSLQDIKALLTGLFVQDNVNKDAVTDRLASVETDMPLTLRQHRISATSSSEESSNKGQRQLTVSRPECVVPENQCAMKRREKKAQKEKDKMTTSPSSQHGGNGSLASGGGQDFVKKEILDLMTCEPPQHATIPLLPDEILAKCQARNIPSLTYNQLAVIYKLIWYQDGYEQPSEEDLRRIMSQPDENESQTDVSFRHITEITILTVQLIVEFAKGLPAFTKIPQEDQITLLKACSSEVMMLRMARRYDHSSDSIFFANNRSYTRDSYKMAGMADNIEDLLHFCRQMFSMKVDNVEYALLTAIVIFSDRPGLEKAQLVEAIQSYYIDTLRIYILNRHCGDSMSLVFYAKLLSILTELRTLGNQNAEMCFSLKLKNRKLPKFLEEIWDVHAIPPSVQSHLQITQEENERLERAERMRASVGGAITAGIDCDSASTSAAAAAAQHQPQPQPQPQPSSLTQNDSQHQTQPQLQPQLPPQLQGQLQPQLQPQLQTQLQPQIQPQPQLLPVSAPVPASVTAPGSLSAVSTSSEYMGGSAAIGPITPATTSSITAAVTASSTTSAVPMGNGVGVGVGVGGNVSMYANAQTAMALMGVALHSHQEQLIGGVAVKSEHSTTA

| Compound | EC50 [1] | EC50 [2] | EC50 ([3]; FIG. 14A/14B, read-out: EC50) | EC50 [4] | EC50 [5] | EC50 [6] | EC50 ([3]; EC50, FIG. 14A/14B) |
| --- | --- | --- | --- | --- | --- | --- | --- |
| CC(C)(O)CC[C@@H](O)[C@](C)(O)[C@H]1CC[C@@]2(O)C3=C[C@@H](O)[C@@H]4C[C@@H](O)[C@@H](O)C[C@]4(C)[C@H]3CC[C@]12C [Compound 6b-hydroxy-20-hydroxyecdysone] | ~20 µM | ~20 µM | ~6 µM | ~3.3 µM | > 33 µM | ~20 µM |  |
| CC(C)(O)CC[C@@H](O)[C@](C)(O)[C@H]1CC[C@@]2(O)C3=C[C@H](O)[C@@H]4C[C@@H](O)[C@@H](O)C[C@]4(C)[C@H]3CC[C@]12C [Compound 6a-hydroxy-20-hydroxyecdysone] | > 33 µM | > 33 µM | ~12 µM | 10 µM | > 33 µM | > 33 µM |  |
| CC(C)(O)CC[C@@H](O)[C@](C)(O)[C@H]1CC[C@@]2(O)C3=CC(=O)[C@@H]4C[C@@H](O)[C@@H](O)C[C@]4(C)C3=CC[C@]12C [Compound 25-hydroxydacryhainansterone] | > 33 µM | ~15 µM | ~5 µM | ~3.3 µM | > 33 µM | ~20 µM |  |
| CC(C)(O)CC[C@@H](OC(=O)c1ccc[nH]1)[C@](C)(O)[C@H]1CC[C@@]2(O)C3=CC(=O)[C@@H]4C[C@@H](O)[C@@H](O)C[C@]4(C)[C@H]3CC[C@]12C | ~20 µM | ~15 µM | ~10 µM | ~5 µM | > 33 µM | ~20 µM |  |
| CCCCCC(=O)OC1CC2(C)C(C(C)(O)C(O)CCC(C)(C)O)CCC2(O)C2=CC(=O)C3CC(O)C(O)CC3(C)C21 (stereo not drawn) [turkesterone-11 a -hexanoate] | > 33 µM | > 33 µM |  | ~10 µM | > 33 µM | > 33 µM | ~12 µM |
| CCCCCCCCCC(=O)OC1CC2(C)C(C(C)(O)C(O)CCC(C)(C)O)CCC2(O)C2=CC(=O)C3CC(O)C(O)CC3(C)C21 (stereo not drawn) [turkesterone-11a-decanoate] | > 33 µM | > 33 µM |  | > 33 µM | > 33 µM | > 33 µM | > 33 µM |
| CC(=O)OCC(=O)O[C@H](CCC(C)(C)O)[C@](C)(O)[C@H]1CC[C@@]2(O)C3=CC(=O)[C@@H]4C[C@@H](O)[C@@H](O)C[C@]4(C)[C@H]3CC[C@]12C [20-hydroxyecdysone 22-acetoxyacetate] | ~20 µM | ~12 µM | ~3.3 µM | ~3.3 µM | > 33 µM | ~10 µM |  |
| CC(C)CC[C@@H](O)[C@](C)(O)[C@H]1CC[C@@]2(O)C3=CC(=O)[C@@H]4C[C@@H](O)[C@@H](O)C[C@]4(C)[C@H]3[C@H](O)C[C@]12C [ajugasterone C] | ~2 µM | 2.06 µM |  | ~0.2 µM | ~20 µM | 9.51 µM | 0.07 µM |
